Experimental data reported in ChEMBL document CHEMBL4706683 (J Med Chem, 2021).
pIC50: −log10 of the molar value. Calls of active or inactive are those of the source. No cut-off for these calls is given here.

Assays:
[1] = tested on: Plasmodium falciparum; experiment: Antiplasmodial activity against synchronized ring stage Plasmodium falciparum 3D7 infected in human erythrocytes assessed as reduction in parasite growth incubated for 72 hrs by Giemsa staining based light microscopic method; assay type: functional, organism-based; details: 3D7, Erythrocyte
[2] = tested on: Plasmodium falciparum; experiment: Antiplasmodial activity against synchronized ring stage Plasmodium falciparum Dd2 infected in human erythrocytes assessed as reduction in parasite growth incubated for 72 hrs by Giemsa staining based light microscopic method; assay type: functional, organism-based; details: Dd2, Erythrocyte
[3] = tested on: HepG2; experiment: Cytotoxicity against human HepG2 cells assessed as reduction in cell viability incubated for 72 hrs by cell titer glo assay; assay type: cell-based; details: HepG2, 72 h
[4] = tested on: HEK-293T; experiment: Cytotoxicity against human HEK293T cells assessed as reduction in cell viability incubated for 72 hrs by cell titer glo assay; assay type: cell-based
[5] = Selectivity index, ratio of IC50 for cytotoxicity against human HepG2 cells assessed to IC50 for antiplasmodial activity against synchronized ring stage Plasmodium falciparum 3D7 infected in human erythrocytes; assay type: toxicity, cell-based; details: read-out: Ratio IC50
[6] = Selectivity index, ratio of IC50 for cytotoxicity against human HEK293T cells assessed to IC50 for antiplasmodial activity against synchronized ring stage Plasmodium falciparum 3D7 infected in human erythrocytes; assay type: toxicity, cell-based; details: read-out: Ratio IC50
[7] = tested on: Plasmodium falciparum; experiment: Antiplasmodial activity against Plasmodium falciparum GB4 infected in human erythrocytes assessed as reduction in parasite growth incubated for 72 hrs by Giemsa staining based light microscopic method; assay type: functional, organism-based; details: GB4, Erythrocyte
[8] = tested on: Plasmodium falciparum; experiment: Antiplasmodial activity against Plasmodium falciparum C2A infected in human erythrocytes assessed as reduction in parasite growth incubated for 72 hrs by Giemsa staining based light microscopic method; assay type: functional, organism-based; details: Erythrocyte
[9] = tested on: Plasmodium falciparum; experiment: Antiplasmodial activity against Plasmodium falciparum CP286 infected in human erythrocytes assessed as reduction in parasite growth incubated for 72 hrs by Giemsa staining based light microscopic method; assay type: functional, organism-based; details: CP286, Erythrocyte
[10] = tested on: Plasmodium falciparum; experiment: Antiplasmodial activity against artemisinin-resistant Plasmodium falciparum 6218 infected in human erythrocytes assessed as reduction in parasite growth incubated for 72 hrs by Giemsa staining based light microscopic method; assay type: functional, organism-based; details: Plasmodium falciparum, 6218, Erythrocyte
[11] = tested on: Plasmodium falciparum; experiment: Antiplasmodial activity against artemisinin-resistant ring stage Plasmodium falciparum 6320 infected in human erythrocytes assessed as reduction in parasite growth incubated for 72 hrs by Giemsa staining based light microscopic method; assay type: functional, organism-based; details: Plasmodium falciparum, 6320, Erythrocyte
[12] = Half life in mouse liver microsomes incubated upto 45 mins in presence of NADPH by LC-MS/MS analysis; assay type: ADME, Microsome
[13] = Clearance in mouse liver microsomes incubated upto 45 mins in presence of NADPH by LC-MS/MS analysis; assay type: ADME, Microsome; details: read-out: CLH
[14] = Toxicity in Balb/c mouse infected with blood stage Plasmodium yoelii assessed as animal death at 10 to 30 mg/kg, ip QD for 5 consecutive days and measured on day 6; assay type: organism-based; details: in vivo, 120 h, dose 10-30 mg/kg, time 5 day
[15] = tested on: Plasmodium yoelii; experiment: Antiplasmodial activity against blood stage Plasmodium yoelii infected in Balb/c mouse assessed as reduction in parasitemia at 10 to 30 mg/kg, ip QD for 5 consecutive days and measured on day 20 by microscopic analysis; assay type: functional, organism-based; details: dose 10-30 mg/kg, time 5.0 day
[16] = Toxicity in Balb/c mouse infected with blood stage Plasmodium yoelii assessed as recrudescence at 10 to 30 mg/kg, ip QD for 5 consecutive days and measured on day 20; assay type: organism-based; details: in vivo, 120 h, dose 10-30 mg/kg, time 5 day
[17] = Toxicity in Balb/c mouse infected with sporozoites liver stage Plasmodium berghei assessed as animal death at 30 mg/kg, ip administered as single dose and measured after 2 hrs; assay type: organism-based; details: in vivo
[18] = tested on: Plasmodium berghei; experiment: Antiplasmodial activity against liver stage Plasmodium berghei infected in Balb/c mouse assessed as reduction in parasitemia at 30 mg/kg, ip administered as single dose by microscopic analysis; assay type: functional, organism-based
[19] = tested on: Plasmodium falciparum; experiment: Antiplasmodial activity against synchronized ring stage Plasmodium falciparum 3D7 infected in human erythrocytes assessed as new ring stage formation at 10 times IC50 incubated for 12 hrs followed by compound washout and measured at 50 hrs by […] analysis; assay type: functional, organism-based; details: Erythrocyte
[20] = tested on: Plasmodium falciparum; experiment: Antiplasmodial activity against schizont stage Plasmodium falciparum 3D7 infected in human erythrocytes assessed as reduction in parasitemia at 10 times IC50 incubated for 12 hrs followed by compound washout and measured at 96 hrs post infection by […] analysis; assay type: functional, organism-based; details: Erythrocyte
[21] = tested on: Plasmodium falciparum; experiment: Inhibition of Plasmodium falciparum HDAC assessed as hyperacetylation of histone H3 at 20 times IC50 incubated for 4 hrs by Western blot analysis
[22] = tested on: Plasmodium falciparum; experiment: Antimalarial activity against synchronized schizont stage transgenic Plasmodium falciparum 3D7 with C-terminal 3xTY1-fused HDAC1 knockdown assessed as parasite growth inhibition pretreated with glucosamine followed by compound treatment and incubated for 4 hrs followed by compound washout for thrice and subsequent culturing for 68 hrs by SYBR Green 1 staining based analysis; assay type: functional, organism-based
[23] = tested on: Plasmodium falciparum; experiment: Antimalarial activity against synchronized schizont stage transgenic Plasmodium falciparum 3D7 with C-terminal 3xTY1-fused HDAC2 knockdown assessed as parasite growth inhibition pretreated with glucosamine followed by compound treatment and incubated for 4 hrs followed by compound washout for thrice and subsequent culturing for 68 hrs by SYBR Green 1 staining based analysis; assay type: functional, organism-based
[24] = tested on: Plasmodium falciparum; experiment: Antimalarial activity against synchronized schizont stage transgenic Plasmodium falciparum 3D7 with C-terminal glmS-fused HDAC2 knockdown assessed as parasite growth inhibition pretreated with glucosamine followed by compound treatment and incubated for 4 hrs followed by compound washout for thrice and subsequent culturing for 68 hrs by SYBR Green 1 staining based analysis; assay type: functional, organism-based
[25] = Inhibition of recombinant full length C-terminal His/FLAG-tagged Plasmodium falciparum HDAC1 expressed in baculovirus infected sf9 insect cells using fluorogenic […] as substrate preincubated for 1.5 hrs followed by substrate addition and measured after 30 mins by HDAC-GloI/II assay
[26] = Cmax in Balb/c mouse at 5 mg/kg, ip administered as single dose measured upto 24 hrs by LC-MS/MS analysis; assay type: ADME, organism-based; design: route intraperitoneal, dose 5 mg/kg, time <=24; details: in vivo
[27] = AUC (0 to infinity) in Balb/c mouse at 10 mg/kg, po administered as single dose measured upto 24 hrs by LC-MS/MS analysis; assay type: ADME, organism-based; design: route oral, dose 10 mg/kg, time <=24; details: in vivo
[28] = Apparent clearance during terminal phase in Balb/c mouse at 5 mg/kg, ip administered as single dose measured upto 24 hrs by LC-MS/MS analysis; assay type: ADME, organism-based; details: Balb/c, in vivo, read-out: CLz/F (converted)
[29] = Apparent volume of distribution during terminal phase in Balb/c mouse at 5 mg/kg, ip administered as single dose measured upto 24 hrs by LC-MS/MS analysis; assay type: ADME, organism-based; details: Balb/c, in vivo, read-out: Vz/F
[30] = Apparent volume of distribution during terminal phase in Balb/c mouse at 10 mg/kg, po administered as single dose measured upto 24 hrs by LC-MS/MS analysis; assay type: ADME, organism-based; details: in vivo
[31] = tested on: Plasmodium falciparum; experiment: Antiplasmodial activity against artemisinin-resistant Plasmodium falciparum 6218 assessed as reduction in parasite survival at 700 nM incubated for 6 hrs followed by compound washout thrice and further cultured in compound free medium for 66 hrs by RSA; assay type: functional, organism-based
[32] = tested on: Plasmodium falciparum; experiment: Antiplasmodial activity against artemisinin-resistant Plasmodium falciparum 6320 assessed as reduction in parasite survival at 700 nM incubated for 6 hrs followed by compound washout thrice and further cultured in compound free medium for 66 hrs by RSA; assay type: functional, organism-based
[33] = Toxicity in Balb/c mouse infected with blood stage Plasmodium yoelii assessed as animal death at 60 mg/kg, ip QD for 5 consecutive days and measured on day 30; assay type: organism-based; details: in vivo, 120 h, time 5 day
[34] = tested on: Plasmodium yoelii; experiment: Antiplasmodial activity against blood stage Plasmodium yoelii infected in Balb/c mouse assessed as reduction in parasitemia at 60 mg/kg, ip QD for 5 consecutive days and measured on day 30 by microscopic analysis; assay type: functional, organism-based; details: time 5.0 day

Row | Compound | pIC50 [1] | pIC50 [2] | pIC50 [3] | pIC50 [4] | selectivity ratio [5] | selectivity ratio [6] | pIC50 [7] | pIC50 [8] | pIC50 [9] | pIC50 [10] | pIC50 [11] | half-life [12] | CLint scaled [13] | Activity [14] | Activity [15] | Activity [33] | Activity [34] | other results
1 | Cl.Cn1cc(CN2CCC3(CCN(c4ncc(C(=O)NO)cn4)CC3)C2)c2ccncc21 | 8.52 | 8.25 | 6.10 | 6.27 | 265 | 180 | 8.36 | 8.31 | 8.24 | 8.42 | 8.41 | 3.06 h | 29.7 mL/min/kg | Non-Toxic | inactive |  |  | Activity [16]: Toxic
2 | Cl.Cn1cc(CNCC2CCN(c3ncc(C(=O)NO)cn3)CC2)c2ccccc21 [QUISINOSTAT HYDROCHLORIDE] | 8.28 | 8.15 | 7.38 | 7.32 |  |  | 8.77 | 8.60 |  |  | 8.79 |  | 410 mL/min/kg | Toxic | inactive |  |  | Activity [17]: Toxic; Activity [18]: inactive; Activity [19]: Active; Activity [20]: Active; inhibition [21]: Active; pIC50 [22]: 7.91; pIC50 [23]: 7.76; pIC50 [24]: 7.63; pIC50 [25]: 11.52; Cmax [26]: 88.7 ng/mL; AUC(0-inf) [27]: 5.98 ng·h/mL; CL/F [28]: 462 mL/min/kg; Vd/F [29]: 245 L/kg; Vz/F [30]: 4172 L/kg; Activity [31]: Active; Activity [32]: Active
3 | Cl.Cn1cc(CN2CCC3(CCN(c4ncc(C(=O)NO)cn4)CC3)C2)c2ncccc21 | 8.49 | 8.37 | 6.07 | 6.12 | 266 | 235 | 8.43 | 8.30 | 8.26 | 8.39 | 8.42 | 2.25 h | 40.4 mL/min/kg |  |  | Non-Toxic | inactive | 
4 | Cl.Cn1cc(CN2CCC3(CCN(c4ncc(C(=O)NO)cn4)CC3)C2)c2cccnc21 | 8.52 | 8.47 | 6.55 | 6.40 | 93 | 132 | 8.19 | 8.21 | 8.17 | 8.30 | 8.28 | 2.75 h | 33.1 mL/min/kg |  |  | Non-Toxic | inactive | 
5 | Cl.Cn1cc(CN2CCC3(CCN(c4ncc(C(=O)NO)cn4)CC3)C2)c2ccccc21 | 8.55 | 8.60 | 7.14 | 7.22 | 26 | 22 | 8.43 | 8.31 | 8.41 | 8.46 | 8.39 | 0.214 h | 424 mL/min/kg |  |  | Toxic |  | 
